Laboratory results: ChEMBL document CHEMBL1146680, “A highly toxic morphine-3-glucuronide derivative” (Bioorg Med Chem Lett, 2004)
Active and inactive are the calls of the source. The rule behind the calls is not given here.

Columns and labels:
Rattus norvegicus [1] = experiment: Opioid antagonist activity (5 mg/kg, peripherally) was determined by measuring the analgesia produced by morphine given 10 mins (after the compound) at a dose of 5 mg/kg; no effect; assay type: functional, organism-based; parameters: dose 5 mg/kg
Rattus norvegicus [2] = experiment: Opioid antagonist activity (1 mg/kg, peripherally) was determined by measuring the analgesia produced by morphine given 10 mins (after the compound) at a dose of 5 mg/kg; no effect; assay type: functional, organism-based; parameters: dose 5 mg/kg
Rattus norvegicus [3] = experiment: Opioid antagonist activity (30 mg/kg, peripherally) was determined by measuring the analgesia produced by morphine given 10 mins (after the compound) at a dose of 5 mg/kg; no effect; assay type: functional, organism-based; parameters: dose 5 mg/kg
Rattus norvegicus [4] = experiment: Opioid agonist activity by measuring the analgesia produced after 1 mg/kg administration in rats; none; assay type: functional, organism-based; parameters: dose 1 mg/kg
Rattus norvegicus [5] = experiment: Opioid agonist activity by measuring the analgesia produced after 5 mg/kg administration in rats; none; assay type: functional, organism-based; parameters: dose 5 mg/kg
Rattus norvegicus [6] = experiment: Opioid antagonist activity (1 mg/kg, peripherally) was determined by measuring the analgesia produced by morphine given 20 mins (after the compound) at a dose of 5 mg/kg; no effect; assay type: functional, organism-based; parameters: dose 5 mg/kg
Rattus norvegicus [7] = experiment: Opioid agonist activity by measuring the analgesia produced after 10 mg/kg administration in rats; none; assay type: functional, organism-based; parameters: dose 10 mg/kg
Rattus norvegicus [8] = experiment: Effect after 5 mg/kg i.p. administration was measured by rat paw pressure test; no analgesia observed; assay type: functional, organism-based; parameters: dose 5 mg/kg
Rattus norvegicus [9] = experiment: Inhibition of analgesia by (5 mg/kg) administered 10 min after morphine (5 mg/kg); inhibited; assay type: functional, organism-based
Rattus norvegicus [10] = experiment: Effect after 1 mg/kg i.p. administration was measured by rat tail flick test; no analgesia observed; assay type: functional, organism-based; parameters: dose 1 mg/kg
Rattus norvegicus [11] = experiment: Effect after 10 mg/kg i.p. administration was measured by rat tail flick test; no analgesia observed; assay type: functional, organism-based; parameters: dose 10 mg/kg
Rattus norvegicus [12] = experiment: Effect after 10 mg/kg i.p. administration was measured by rat paw pressure test; no analgesia observed; assay type: functional, organism-based; parameters: dose 10 mg/kg
Rattus norvegicus [13] = experiment: Effect after 5 mg/kg i.p. administration was measured by rat tail flick test; no analgesia observed; assay type: functional, organism-based; parameters: dose 5 mg/kg
Rattus norvegicus [14] = experiment: Effect after 1 mg/kg i.p. administration was measured by rat paw pressure test; no analgesia observed; assay type: functional, organism-based; parameters: dose 1 mg/kg
Rattus norvegicus [15] = experiment: Effect on rats after 30 mins of 0.005 mg/kg administration; death observed; assay type: ADME, organism-based; parameters: dose 0.005 mg/kg; conditions: in vivo, 0.5 h
Rattus norvegicus [16] = experiment: Reversion of toxic effect (1 ng/kg) by naloxone given 15 mins (before the compound) at a dose of 5 mg/kg; no improvement in survival observed; assay type: ADME, organism-based; parameters: dose 5 mg/kg; conditions: in vivo, 0.25 h
Rattus norvegicus [17] = experiment: Effect on rats after 30 mins of 0.5 mg/kg administration; death observed; assay type: ADME, organism-based; parameters: dose 0.5 mg/kg; conditions: in vivo, 0.5 h
Rattus norvegicus [18] = experiment: Effect on rats after 30 mins of 0.05 mg/kg administration; death observed; assay type: ADME, organism-based; parameters: dose 0.05 mg/kg; conditions: in vivo, 0.5 h
Rattus norvegicus [19] = experiment: Reversion of toxic effect (1 ng/kg) by naloxone given 10 mins (after the compound) at a dose of 1 mg/kg; no improvement in survival observed; assay type: organism-based; parameters: dose 1 mg/kg; conditions: in vivo
Rattus norvegicus [20] = experiment: Reversion of toxic effect (1 ng/kg) by naloxone given 30 mins (after the compound) at a dose of 1 mg/kg; no improvement in survival observed; assay type: ADME, organism-based; parameters: dose 1 mg/kg; conditions: in vivo, 0.5 h
Rattus norvegicus [21] = experiment: Reversion of toxic effect (1 ng/kg) by naloxone given 30 mins (after the compound) at a dose of 5 mg/kg; no improvement in survival observed; assay type: ADME, organism-based; parameters: dose 5 mg/kg; conditions: in vivo, 0.5 h
Rattus norvegicus [22] = experiment: Reversion of toxic effect (1 ng/kg) by naloxone given 30 mins (after the compound) at a dose of 10 mg/kg; no improvement in survival observed; assay type: organism-based; parameters: dose 10 mg/kg; conditions: in vivo, 0.5 h
Rattus norvegicus [23] = experiment: Reversion of toxic effect (1 ng/kg) by naloxone given 20 mins (after the compound) at a dose of 10 mg/kg; no improvement in survival observed; assay type: ADME, organism-based; parameters: dose 10 mg/kg; conditions: in vivo
Rattus norvegicus [24] = experiment: Reversion of toxic effect (1 ng/kg) by naloxone given 15 mins (after the compound) at a dose of 5 mg/kg; no improvement in survival observed; assay type: ADME, organism-based; parameters: dose 5 mg/kg; conditions: in vivo, 0.25 h
Rattus norvegicus [25] = experiment: Reversion of toxic effect (1 ng/kg) by naloxone given 20 mins (before the compound) at a dose of 5 mg/kg; no improvement in survival observed; assay type: ADME, organism-based; parameters: dose 5 mg/kg; conditions: in vivo
Rattus norvegicus [26] = experiment: Reversion of toxic effect (1 ng/kg) by naloxone given 15 mins (after the compound) at a dose of 10 mg/kg; no improvement in survival observed; assay type: ADME, organism-based; parameters: dose 10 mg/kg; conditions: in vivo, 0.25 h
Rattus norvegicus [27] = experiment: Reversion of toxic effect (1 ng/kg) by naloxone given 10 mins (before the compound) at a dose of 5 mg/kg; no improvement in survival observed; assay type: ADME, organism-based; parameters: dose 5 mg/kg; conditions: in vivo
Rattus norvegicus [28] = experiment: Reversion of toxic effect (1 ng/kg) by naloxone given 15 mins (before the compound) at a dose of 10 mg/kg; no improvement in survival observed; assay type: organism-based; parameters: dose 10 mg/kg; conditions: in vivo, 0.25 h
Mus musculus [29] = experiment: Effect after 1 ng/kg i.p. administration was measured by mice paw pressure test; no analgesia observed; assay type: functional, organism-based
Rattus norvegicus [30] = experiment: Effect on rats after 30 mins of 5 mg/kg administration; death observed; assay type: ADME, organism-based; parameters: dose 5 mg/kg; conditions: in vivo, 0.5 h
Rattus norvegicus [31] = experiment: Reversion of toxic effect (1 ng/kg) by naloxone given 15 mins (after the compound) at a dose of 1 mg/kg; no improvement in survival observed; assay type: organism-based; parameters: dose 1 mg/kg; conditions: in vivo, 0.25 h
Rattus norvegicus [32] = experiment: Reversion of toxic effect (1 ng/kg) by naloxone given 20 mins (after the compound) at a dose of 1 mg/kg; no improvement in survival observed; assay type: ADME, organism-based; parameters: dose 1 mg/kg; conditions: in vivo
Rattus norvegicus [33] = experiment: Reversion of toxic effect (1 ng/kg) by naloxone given 20 mins (after the compound) at a dose of 5 mg/kg; no improvement in survival observed; assay type: organism-based; parameters: dose 5 mg/kg; conditions: in vivo
Mus musculus [34] = experiment: Effect after 1 ng/kg i.p. administration was measured by mice tail flick test; no analgesia observed; assay type: functional, organism-based
Rattus norvegicus [35] = experiment: Reversion of toxic effect (1 ng/kg) by naloxone given 10 mins (after the compound) at a dose of 10 mg/kg; no improvement in survival observed; assay type: ADME, organism-based; parameters: dose 10 mg/kg; conditions: in vivo
Rattus norvegicus [36] = experiment: Reversion of toxic effect (1 ng/kg) by naloxone given 10 mins (before the compound) at a dose of 10 mg/kg; no improvement in survival observed; assay type: ADME, organism-based; parameters: dose 10 mg/kg; conditions: in vivo
Rattus norvegicus [37] = experiment: Reversion of toxic effect (1 ng/kg) by naloxone given 10 mins (after the compound) at a dose of 5 mg/kg; no improvement in survival observed; assay type: ADME, organism-based; parameters: dose 5 mg/kg; conditions: in vivo
Rattus norvegicus [38] = experiment: Reversion of toxic effect (1 ng/kg) by naloxone given 20 mins (before the compound) at a dose of 1 mg/kg; no improvement in survival observed; assay type: organism-based; parameters: dose 1 mg/kg; conditions: in vivo
Rattus norvegicus [39] = experiment: Effect on rats after 30 mins of 2.5 mg/kg administration; death observed; assay type: ADME, organism-based; parameters: dose 2.5 mg/kg; conditions: in vivo, 0.5 h
Rattus norvegicus [40] = experiment: Reversion of toxic effect (1 ng/kg) by naloxone given 20 mins (before the compound) at a dose of 10 mg/kg; no improvement in survival observed; assay type: ADME, organism-based; parameters: dose 10 mg/kg; conditions: in vivo
Rattus norvegicus [41] = experiment: Reversion of toxic effect (1 ng/kg) by naloxone given 10 mins (before the compound) at a dose of 1 mg/kg; no improvement in survival observed; assay type: organism-based; parameters: dose 1 mg/kg; conditions: in vivo
Rattus norvegicus [42] = experiment: Effect on rats after 30 mins of 1 ng/kg administration; death observed; assay type: ADME, organism-based; conditions: in vivo, 1e-06 mg/kg, 0.5 h
Rattus norvegicus [43] = experiment: Reversion of toxic effect (1 ng/kg) by naloxone given 15 mins (before the compound) at a dose of 1 mg/kg; no improvement in survival observed; assay type: organism-based; parameters: dose 1 mg/kg; conditions: in vivo, 0.25 h
Rattus norvegicus [44] = experiment: Effect on rats after 30 mins of 1 mg/kg administration; death observed; assay type: ADME, organism-based; parameters: dose 1 mg/kg; conditions: in vivo, 0.5 h
Rattus norvegicus [45] = experiment: Analgesic effect on rats after 30 mins of 5 mg/kg administration; value ranges from 60-70%; assay type: functional

C=CCN1CC[C@]23c4c5ccc(O)c4O[C@H]2C(=O)CC[C@@]3(O)[C@H]1C5
Activity (Rattus norvegicus [1]): inactive
Activity (Rattus norvegicus [2]): inactive
Activity (Rattus norvegicus [3]): inactive

CN1CC[C@]23c4c5ccc(O[C@@H]6O[C@H](C(=O)O)[C@@H](O)[C@H](O)[C@H]6O)c4O[C@H]2[C@@H](O)C=C[C@H]3[C@H]1C5 (stereo in doubt; form 1)
Activity (Rattus norvegicus [1]): inactive
Activity (Rattus norvegicus [4]): inactive
Activity (Rattus norvegicus [5]): inactive
Activity (Rattus norvegicus [6]): inactive
Activity (Rattus norvegicus [7]): inactive
Activity (Rattus norvegicus [3]): inactive

CN1CC[C@]23c4c5ccc(OC6OC(C(N)=O)C(O)C(O)C6O)c4O[C@H]2[C@@H](O)C=C[C@H]3[C@H]1C5 (stereo not given in full)
Effect (Rattus norvegicus [8]): no analgesia observed
Activity (Rattus norvegicus [9]): inhibited
Effect (Rattus norvegicus [10]): no analgesia observed
Effect (Rattus norvegicus [11]): no analgesia observed
Effect (Rattus norvegicus [12]): no analgesia observed
Effect (Rattus norvegicus [13]): no analgesia observed
Effect (Rattus norvegicus [14]): no analgesia observed

CN1CC[C@]23c4c5ccc(O[C@@H]6O[C@H](C(=O)O)[C@@H](O)[C@H](O)[C@H]6O)c4O[C@H]2[C@@H](O)C=C[C@H]3[C@H]1C5 (stereo in doubt; form 2)
Activity (Rattus norvegicus [4]): inactive
Activity (Rattus norvegicus [5]): inactive
Activity (Rattus norvegicus [7]): inactive

CCCCCCCCNC(=O)C1OC(Oc2ccc3c4c2O[C@H]2[C@@H](O)C=C[C@H]5[C@@H](C3)N(C)CC[C@@]452)C(O)C(O)C1O (stereo not given in full)
Effect (Rattus norvegicus [15]): Death
Activity (Rattus norvegicus [16]): no improvement in survival
Effect (Rattus norvegicus [17]): Death
Effect (Rattus norvegicus [18]): Death
Activity (Rattus norvegicus [19]): no improvement in survival
Activity (Rattus norvegicus [20]): no improvement in survival
Activity (Rattus norvegicus [21]): no improvement in survival
Activity (Rattus norvegicus [22]): no improvement in survival
Activity (Rattus norvegicus [23]): no improvement in survival
Activity (Rattus norvegicus [24]): no improvement in survival
Activity (Rattus norvegicus [25]): no improvement in survival
Activity (Rattus norvegicus [26]): no improvement in survival
Activity (Rattus norvegicus [27]): no improvement in survival
Activity (Rattus norvegicus [28]): no improvement in survival
Effect (Mus musculus [29]): Death
Effect (Rattus norvegicus [30]): Death
Activity (Rattus norvegicus [31]): no improvement in survival
Activity (Rattus norvegicus [32]): no improvement in survival
Activity (Rattus norvegicus [33]): no improvement in survival
Effect (Mus musculus [34]): Death
Activity (Rattus norvegicus [35]): no improvement in survival
Activity (Rattus norvegicus [36]): no improvement in survival
Activity (Rattus norvegicus [37]): no improvement in survival
Activity (Rattus norvegicus [38]): no improvement in survival
Effect (Rattus norvegicus [39]): Death
Activity (Rattus norvegicus [40]): no improvement in survival
Activity (Rattus norvegicus [41]): no improvement in survival
Effect (Rattus norvegicus [42]): Death
Activity (Rattus norvegicus [43]): no improvement in survival
Effect (Rattus norvegicus [44]): Death

CN1CC[C@]23c4c5ccc(O)c4O[C@H]2[C@@H](O)C=C[C@H]3[C@H]1C5 [MORPHINE]
Effect (Rattus norvegicus [45]): 70%
